Data taken from PMC12056086 (Nature Communications, 2025).

Assays:
[1] = target: human dopamine transporter (hDAT) (Homo sapiens, UniProt Q01959, K92A)
[2] = target: human dopamine transporter (hDAT) (Homo sapiens, UniProt Q01959, V152I)
[3] = target: human dopamine transporter (hDAT) (Homo sapiens, UniProt Q01959, G386H)
[4] = target: human dopamine transporter (hDAT) (Homo sapiens, UniProt Q01959); assay: cell-based; details: read-out: single-molecule AFM force spectroscopy on live cells
[5] = target: human dopamine transporter (hDAT) (Homo sapiens, UniProt Q01959, K384A)
Chain of human dopamine transporter (hDAT) (Homo sapiens, UniProt Q01959, K384A) (Q01959 whole entry K384A): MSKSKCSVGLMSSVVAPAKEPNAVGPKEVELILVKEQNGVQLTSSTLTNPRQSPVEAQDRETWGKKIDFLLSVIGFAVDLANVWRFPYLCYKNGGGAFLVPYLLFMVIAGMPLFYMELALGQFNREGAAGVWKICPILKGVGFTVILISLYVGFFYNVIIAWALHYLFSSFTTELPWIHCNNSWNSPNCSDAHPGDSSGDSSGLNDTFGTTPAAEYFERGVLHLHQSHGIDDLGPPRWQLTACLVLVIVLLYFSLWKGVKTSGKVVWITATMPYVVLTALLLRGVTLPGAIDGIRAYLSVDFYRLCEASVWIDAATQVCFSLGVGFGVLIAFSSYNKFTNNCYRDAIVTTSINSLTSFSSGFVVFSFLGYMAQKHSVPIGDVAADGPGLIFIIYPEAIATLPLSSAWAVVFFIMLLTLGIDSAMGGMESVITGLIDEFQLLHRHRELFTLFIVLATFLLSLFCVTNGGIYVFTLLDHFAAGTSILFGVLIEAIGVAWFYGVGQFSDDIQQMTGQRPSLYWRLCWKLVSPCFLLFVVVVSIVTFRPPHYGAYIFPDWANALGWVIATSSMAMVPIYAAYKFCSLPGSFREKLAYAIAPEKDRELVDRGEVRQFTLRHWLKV

Chain of human dopamine transporter (hDAT) (Homo sapiens, UniProt Q01959, K92A) (Q01959 whole entry K92A): as the sequence (Q01959 whole entry K384A) above, with K92A, A384K counted along it
Chain of human dopamine transporter (hDAT) (Homo sapiens, UniProt Q01959, V152I) (Q01959 whole entry V152I): as the sequence (Q01959 whole entry K384A) above, with V152I, A384K counted along it
Chain of human dopamine transporter (hDAT) (Homo sapiens, UniProt Q01959) (Q01959 whole entry): as the sequence (Q01959 whole entry K384A) above, with A384K counted along it
Chain of human dopamine transporter (hDAT) (Homo sapiens, UniProt Q01959, G386H) (Q01959 whole entry G386H): as the sequence (Q01959 whole entry K384A) above, with A384K, G386H counted along it

NCCc1ccc(O)c(O)c1 [dopamine]
single-molecule AFM force spectroscopy on live cells [1]: both K92A and K384A diminished the population of weaker unbinding events, indicating that both lysines are involved in the S2 site | single-molecule AFM force spectroscopy on live cells [2]: (V152I) also reduced the population of stronger binding events (d) while the overall binding activity is preserved | single-molecule AFM force spectroscopy on live cells [3]: dopamine was still able to bind to the S2 site of DAT-G386H, albeit with lower binding strength | koff [4]: 0.11 ± 0.03 s⁻¹ | single-molecule AFM force spectroscopy on live cells [5]: both K92A and K384A diminished the population of weaker unbinding events, indicating that both lysines are involved in the S2 site
